Experimental findings from paper PMC12040169 (PLOS Biology, 2025) are described below.

A short description of the data set: in vitro. As to conditions: human, hela cells, % viability.
The term viability denotes a read-out of living cells in per cent, often relative to untreated cells. In the case of `O=C1Cc2c(ccc3ccccc23)C2(CCN(CCCC(F)(F)F)CC2)N1` [CBK039912], the viability at 28.5 h, 10 µM was found to be 89.6%.
As to `Cc1ccc2[nH]c3c(c2c1)CCOC31CCN(Cc2ccccc2-c2ccccc2)CC1` [CBK039915], the viability at 28.5 h, 10 µM was found to be 89.1%.
Regarding `COc1cc2c(cc1OC)C1(CCN(CCc3c[nH]c4ccccc34)CC1)NC(=O)C2` [CBK039992], the viability at 28.5 h, 10 µM worked out at 99.3%.
For the molecule `COc1cc2c(c(OC)c1OC)C1(CCN(Cc3ccc(S(C)(=O)=O)cc3)CC1)NC(=O)C2` [CBK040014], the viability at 28.5 h, 10 µM is 108%.
In the case of `N#CCCN1CCCC2(C1)NCCc1c2[nH]c2ccccc12` (stereo not shown) [CBK040031], the viability at 28.5 h, 10 µM came out at 97%.
As for `N#CCCCN1CCC2(CC1)OCCc1c2[nH]c2ccc(Br)cc12` [CBK040105], the viability at 28.5 h, 10 µM amounted to 88.4%.
Turning to `COc1cccc2c3c([nH]c12)C1(CCCN(C/C=C\c2ccccc2)C1)NCC3` (stereo not shown) [CBK040138], the viability at 28.5 h, 10 µM turned out to be 98.3%.
Regarding `Fc1ccc2[nH]c3c(c2c1)CCOC31CCN(C/C=C\c2ccccc2)CC1` [CBK040141], the viability at 28.5 h, 10 µM amounted to 70.1%.
Turning to `c1csc(CCN2CCC3(C2)NCCc2c3[nH]c3ccccc23)c1` (stereo not shown) [CBK040196], the viability at 28.5 h, 10 µM stood at 111%.
Take `c1ccc(COCCCN2CCC3(CC2)OCCc2c3[nH]c3ccccc23)cc1` [CBK040208]: the viability at 28.5 h, 10 µM was determined as 84.8%.
The same measure for `Cc1ccc2c(c1)C1(CCN(CC3CC3)CC1)NC(=O)C2` [CBK040217]: 94.8%; for `COc1cccc(CN2CCC3(CC2)NC(=O)Cc2ccc(C)cc23)c1` [CBK040219]: 88.5%; for `Cc1ccc2[nH]c3c(c2c1)CCOC31CCN(CCOc2cccc3c2CCCC3=O)CC1` [CBK040230]: 83.3%.
With `COc1ccccc1C(=O)CN1CCC2(CC1)OCCc1c2[nH]c2ccc(F)cc12` [CBK040238], the viability at 28.5 h, 10 µM worked out at 97.6%.
Regarding `COc1ccccc1CCCN1CCC2(C1)NCCc1c2[nH]c2ccccc12` (stereo not shown) [CBK040257], the viability at 28.5 h, 10 µM was determined as 91%.
Take `Cc1cccc2c3c([nH]c12)C1(CCCN(C/C=C\c2ccccc2)C1)N(C=O)CC3` (stereo not shown) [CBK040265]: the viability at 28.5 h, 10 µM was determined as 92.4%.
Take `O=CN1CCc2c([nH]c3cc(F)ccc23)C12CCN(CCc1cccs1)CC2` [CBK040312]: the viability at 28.5 h, 10 µM was found to be 81.2%.
As for `O=CN1CCc2c([nH]c3ccccc23)C12CCN(CC1CC1)CC2` [CBK040315], the viability at 28.5 h, 10 µM came to 91.8%.
In the case of `COc1ccc2[nH]c3c(c2c1)CCN(C=O)C31CCN(Cc2cccc(Cl)c2)C1` (stereo not shown) [CBK040376], the viability at 28.5 h, 10 µM is 97.3%.
For the molecule `CC(=O)N1CCc2c([nH]c3c(C)cccc23)C12CCN(C/C=C\c1ccccc1)C2` (stereo not shown) [CBK040414], the viability at 28.5 h, 10 µM worked out at 90.8%.
The same measure for `COc1cccc(CN2CCC3(CC2)c2[nH]c4ccc(OCc5ccccc5)cc4c2CCN3C=O)c1` [CBK040462]: 101%; for `c1ccc(COc2ccc3[nH]c4c(c3c2)CCNC42CCCN(CC3CC3)C2)cc1` (stereo not shown) [CBK040619]: 100%.
For the molecule `Brc1ccc2[nH]c3c(c2c1)CCOC31CCN(CC2CCCCO2)CC1` (stereo not shown) [CBK040648], the viability at 28.5 h, 10 µM is 87.8%.
In the case of `Cn1c2c(c3ccccc31)CCOC21CCN(CC2CCCCO2)CC1` (stereo not shown) [CBK040649], the viability at 28.5 h, 10 µM was determined as 87.9%.
The result for `C[C@@H]1CNCCN1c1nccnc1OCCOc1cccnc1OCCN` [CBK040757T] reads 88.8%.
With `O=S(=O)(NCCc1cccs1)c1cc2c(N3CCNCC3)nccc2s1` [CBK041299C], the viability at 28.5 h, 10 µM is 104%.
On to `COc1ccc([C@@]23CC[C@H](NC(=O)Nc4ccc(F)c(F)c4)C[C@@H]2N(Cc2ccccc2)CC3)cc1OC` [CBK041333T], for which the viability at 28.5 h, 10 µM came out at 94.5%.
Turning to `CCn1cc(C(=O)O)c(=O)c2cnc(N3CCNCC3)nc21` [CBK041585], the viability at 28.5 h, 10 µM stood at 90.8%.
Regarding `COc1ccc([C@@]23CC[C@@H](CNC(=O)c4ccc(C(F)(F)F)cc4)C[C@@H]2N(C)CC3)cc1OC` [CBK042195], the viability at 28.5 h, 10 µM was determined as 107%.
With `O=[N+]([O-])c1ccc(N2CCN(CCO)CC2)cc1NCc1ccccc1` [CBK042200], the viability at 28.5 h, 10 µM was found to be 99.9%.
Regarding `CN1CCN(C(=O)CNS(=O)(=O)c2ccc3ccccc3c2)CC1` [CBK042205], the viability at 28.5 h, 10 µM came to 99.3%.
Consider `COc1ccc(Br)cc1S(=O)(=O)NCC(=O)Nc1ccc(F)cc1` [CBK042223], for which the viability at 28.5 h, 10 µM was 98.1%.
Regarding `O=C(CNS(=O)(=O)Cc1ccccc1[N+](=O)[O-])Nc1ccc(F)cc1` [CBK042228], the viability at 28.5 h, 10 µM is 90%.
The same measure for `O=C(CS(=O)(=O)c1cc2c(N3CCNCC3)nccc2s1)c1ccc(N2CCCC2)cc1` [CBK042232C]: 81.2%.
Consider `Cc1ccc(S(=O)(=O)Nc2sccc2C(=O)O)cc1` [CBK042244], for which the viability at 28.5 h, 10 µM was 98.6%.
For `O=C(O)c1ccsc1NS(=O)(=O)c1ccc(Oc2ccccc2)cc1` [CBK042259], the viability at 28.5 h, 10 µM is 89.8%.
In the case of `CN1CCN(C(=O)c2ccsc2NS(=O)(=O)Cc2ccccc2)CC1` [CBK042266], the viability at 28.5 h, 10 µM stood at 97.5%.
In the case of `CN1CCN(C(=O)c2ccsc2NS(=O)(=O)/C=C/c2ccccc2)CC1` [CBK042267], the viability at 28.5 h, 10 µM is 104%.
In the case of `CN1CCN(C(=O)c2ccsc2NS(=O)(=O)c2ccc(-c3ccccc3)cc2)CC1` [CBK042274], the viability at 28.5 h, 10 µM came to 103%.
The same measure for `O=C(c1ccsc1NS(=O)(=O)c1ccc2ccccc2c1)N1CCOCC1` [CBK042278]: 93.7%; for `O=C(c1ccsc1NS(=O)(=O)/C=C/c1ccccc1)N1CCOCC1` [CBK042285]: 90.8%; for `O=C(c1ccsc1NS(=O)(=O)Cc1ccccc1[N+](=O)[O-])N1CCOCC1` [CBK042294]: 89.6%.
Consider `O=C(Nc1ccc(F)cc1)c1ccsc1NS(=O)(=O)Cc1ccccc1` [CBK042303], for which the viability at 28.5 h, 10 µM amounted to 82.8%.
On to `CCN(CC)C(=O)c1ccsc1NS(=O)(=O)c1cc(Br)ccc1OC` [CBK042327], for which the viability at 28.5 h, 10 µM came to 103%.
As to `CC(C)c1ccc(NS(=O)(=O)c2csc3ccnc(N4CCNCC4)c23)cc1` [CBK042343C], the viability at 28.5 h, 10 µM was 95.8%.
Turning to `O=C(O)c1ccccc1NS(=O)(=O)c1cccc2cccnc12` [CBK042358], the viability at 28.5 h, 10 µM worked out at 56.7%.
For `CC(=O)Nc1ccc(S(=O)(=O)Nc2ccccc2C(=O)O)cc1` [CBK042361], the viability at 28.5 h, 10 µM came out at 107%.
Take `O=C(O)c1ccccc1NS(=O)(=O)/C=C/c1ccccc1` [CBK042363]: the viability at 28.5 h, 10 µM worked out at 102%.
`COc1ccc(S(=O)(=O)Nc2ccccc2C(=O)O)cc1OC` [CBK042368]: the viability at 28.5 h, 10 µM was 85.7%.
`O=C(NCCC1=CCCCC1)Nc1ccc(F)c(F)c1F` [CBK043265]: the viability at 28.5 h, 10 µM amounted to 89.3%.
`Cc1ccc(NS(=O)(=O)c2ccc(OC(F)(F)F)cc2)c(CO)c1` [CBK043267]: the viability at 28.5 h, 10 µM was found to be 86.8%.
For `C[C@@H]1[C@H](c2ccccc2)OC(=O)N1C1CCN(S(=O)(=O)c2cccs2)CC1` [CBK043302], the viability at 28.5 h, 10 µM was determined as 93.9%.
In the case of `O=C1OCCN1C1CCN(S(=O)(=O)c2cccs2)CC1` [CBK043313], the viability at 28.5 h, 10 µM stood at 99.3%.
`O=C(c1ccccc1NS(=O)(=O)c1cccc2cccnc12)N1CCOCC1` [CBK043338]: the viability at 28.5 h, 10 µM was 87.1%.
With `O=S(=O)(NCc1cccc(F)c1)c1ccc(OC(F)(F)F)cc1` [CBK043379], the viability at 28.5 h, 10 µM is 88.5%.
